From patent US20230132366A9, “METHODS FOR TREATING DYSREGULATED LIPID METABOLISM” (DENALI THERAPEUTICS INC., priority 2018, published 2023)

Test system: Trem2 KO BMDMs
Test: In vitro lipid storage assay, Nile Red staining, BMDM treated with myelin
Type: cell-based, mouse
Description: Mouse femur and tibia bones were dissected and briefly sterilized with 70% ethanol. The bones were washed twice with HBSS, then cracked in 10 mL HBSS by mortar and pestle. The cell suspension was filtered through a 70 μm cell strainer, spun at 300×g for 5 min, and supernatant was discarded. The cell pellet was resuspended in ACK Lysing Buffer (Thermo Fisher A1049201) for 4 min at room temperature. 10 mL RPMI-1640 (Thermo Fisher)+10% Hyclone FBS (GE Healthcare)+ Penicillin-Streptomycin (Thermo Fisher) was added to stop ACK lysis, then spun 300×g 5 min, and supernatant was discarded. Cells were resuspended in RPMI culture media with 50 ng/mL murine M-CSF (Life Technologies, PMC2044), counted and diluted to 1×10^6 cells/mL, then plated on non-tissue culture treated petri dishes. Three days after seeding, fresh murine M-CSF (50 ng/mL) was added. Five days after seeding, cell culture media was aspirated and cells were washed once with PBS. Cells were resuspended in RPMI/FBS/Pen-Strep and harvested with a cell scraper. […]
For LC-MS, cells were extracted according to the protocol below. […] Lipid and filipin spots were analyzed using a spot-finding algorithm on the Harmony software supplied with the instrument. […] Cells were imaged at 63× resolution and Nile Red was quantified as total spot area (FIG. 5B) using a spot-finding algorithm on the Harmony software. […]

Row | Compound | neutral lipid accumulation (Nile Red) (myelin debris 25 ug/mL 48 h, co-treatment 10 uM) | neutral lipid accumulation (Nile Red, total spot area) (myelin 25 ug/mL 24 h, then APOE3 10 ug/mL 24 h)
1 | C=C(c1ccc(C(=O)O)cc1)c1cc2c(cc1C)C(C)(C)CCC2(C)C [bexarotene] | reduced | –
2 | APOE3: recombinant human APOE3 added into the culture media | – | improved
